Like-named read-outs stand apart in the source and are kept apart here.
Columns and labels:
[1] = system: subgenomic HCV replicon BM4-5 in Huh7 cells; assay: Antiviral assay on HCV subgenomic replicon, Northern blot of (+)-strand HCV RNA; format: cell-based, Hepatitis C Virus; conditions: for IC50: read-out: IC50, anti-HCV activity, (+)-RNA; for IC90: read-out: IC90, anti-HCV activity, (+)-RNA; for Selectivity Index (SI), ratio between CC50 and IC50: replicon system
Experimental: (§1) Antiviral and Cytotoxicity assays for HCV. Huh7 cells harbouring the subgenomic HCV replicon BM4-5 (J. T. Guo et al., J. Virol. 2001, 75: 8516-8523) were used in this study. Cells were maintained in Dulbecco's modified Eagle's medium high glucose 4.5 g/l (LifeTechnlogies) supplemented with 10% fetal bovine serum, 1% L-glutamine, 1% penicillin and streptomycin, 1% L-Pyruvate and 500 μg/ml of geneticien (G418, Invitrogen). Geneticin was used to select cells permitting the HCV RNA replication. Cells were passaged every four days with a 1:4 ratio.
Cells were seeded in 6-wells plates at a density of 2.5×10^5 cells per well, sixteen hours before the beginning of treatment. […] The administration of each drug was renewed every day for three consecutive days. Ribarivin (ICN Pharmaceuticals), mycophenolic acid (MPA, Sigma), and interferon alpha-2b (IntronA®)) were used in the same conditions as positive controls. The concentrations used for these drugs were respectively: 0; 0.5; 1; 2; 4; 8; 16; 32; 64; 128; 256 and 512 μM for ribavirin, 0; 2.5; 5; 10; 20; 40 μM for mycophenolic acid, and 0; 0.1; 1; 10; 100 and 1000 Ul/mL for IFN alpha-2b. Total RNA was extracted at the end of treatment (24 hours after the last day of treatment) with the <<Extract all>> reagent (Eurobio), which is a mix of phenol and guanidium thiocyanate. Northern blot analysis was then performed using the NorthernMax™-Gly kit (Ambion), following manufacturer's instructions. Five micrograms of total RNA were denaturated in glyoxal buffer at 50° C. for 30 minutes, separated by 1.1% agarose gel electrophoresis, and then transferred for 12 hours onto a charged nylon membrane (HybondN+, Amersham). Hybridization was carried out with three different [^32P]CTP-labelled riboprobes obtained by in vitro transcription (Riboprobe in vitro transcription system, Promega). Two probes were complementary to the NS5A region of the HCV genome of negative polarity and positive polarity. A third probe was complementary to the beta-actin mRNA and obtained by in vitro transcription from a specific plasmid (PTRI beta actin human, reference 7424, Ambion). First, the blot was hybridized with the riboprobes directed against the negative strand of HCV RNA and beta-actin mRNA, respectively. After one night of hybridization at 68° C., the membrane was washed, then exposed to X-ray film and a phosphor screen (phosphorimager). This screen was then scanned and quantitative analysis was achieved using ImageQuant software. The amount of beta-actin mRNA was used as an internal loading control to standardize the amount of HCV RNA detected. The same membrane was subsequently hybridized with the […] to determine the level of positive strand HCV RNA, suing the same approach.

[2] = Cell viability (neutral red) on the replicon system; format: cell-based; conditions: human, Huh7 cells harbouring the subgenomic HCV replicon BM4-5, neutral red test, drug renewed daily for three days, read-out: CC50, cytotoxicity on Replicon System
Experimental: as §1
(§2) For cell viability assays, cells were seeded in 96-well plates at a density of 12,500 cells per well. They were treated by the different molecules with the same concentrations and conditions than those used for the antiviral assays. Then, cell viability was measured by neutral red assay. Neutral red specifically colors lysosomes and its accumulation depends on cellular membrane integrity. The yield of neutral red incorporated in cells is proportional to the number of living cells. At the end of treatment, culture medium was removed; cells were washed by PBS, then coloured with neutral red at 0.005% for 3 hours at 37° C. Cells were then fixed 1 minute by formol calcium and lysed by atreatment with a vol/vol mixture of acetic acid and ethanol. After 15 minutes incubation, absorbance was read at 490 nm.

[3] = Cytotoxicity against PBM cells; format: cell-based; conditions: human
[4] = Cytotoxicity against CEM cells; format: cell-based; conditions: human
[5] = Cytotoxicity against VERO cells; format: cell-based; conditions: African green monkey
BVDV strain NADL = assay: Antiviral assay on BVDV, inhibition of cytopathic effect in MDBK cells; format: cell-based; conditions: Bovine viral diarrhea virus isolates and strains, read-out: EC50 ECP inhibition (3rd day p.i.)
Experimental: (§3) Antiviral and cytotoxicity assays for BVDV. Noncytopathic-BVDV-free MDBK cells (European Collection of Animal Cell Cultures, Porton Down, U.K.) were kindly provided by Dr N. Zitzmann (Oxford University). Cells were propagated in DMEM F12 (Eurobio) supplemented with 10% horse serum (Life Technologies), 1% L-glutamin (Gibco), 1% penicillin ansd streptomycin (Gibco).
MDBK cells were seeded in microwell plates (96 wells) at a density of 1.10^5 cells per well, then infected with BVDV (strain NADL) (at dilution inducing 100%/o cytopathic effect three days post inoculation, i.e approximately 10 plaque forming units (pfu) per well at three days post infection) for one hour, at 37° C. After a wash with DMEM, infected cells were incubated for three days in the presence of absence of drug; each concentration of drug was added in 12 consecutive wells. The appearance of CPE was visually checked the third day post inoculation to evaluate the IC50 on BVDV (strain NADL), according to the different conditions of treatment.

[6] = Cytotoxicity on uninfected MDBK cells (neutral red); format: cell-based; conditions: cattle (bovine)
Experimental: as §2
as §3, with “(Gibco). The NADL cytopathic (CP) BVDV strain was obtained from ATCC: VR-504.” for “(Gibco).”
Uninfected MDBK cells were grown in the absence or presence of varying concentrations of drug tested. After 3 days, toxicity was evaluated by neutral red coloration as described above.

[7] = system: Huh7 cells harbouring the subgenomic HCV replicon BM4-5; assay: Cell viability (neutral red) on the replicon system; format: cell-based; conditions: neutral red test, drug renewed daily for three days, read-out: CC50, cytotoxicity on Replicon System
Experimental: as §1, §2

PBM cells = assay: Cytotoxicity against PBM cells; format: cell-based
CEM cells = assay: Cytotoxicity against CEM cells; format: cell-based
VERO cells = assay: Cytotoxicity against VERO cells; format: cell-based
[8] = Hepatitis C virus, 72 h, Huh7 BM4-5 replicon, positive strand HCV RNA by Northern blot, three days treatment
[9] = Huh7 BM4-5 replicon, positive strand HCV RNA by Northern blot, three days treatment

SMILES: O=c1[nH]c(=O)n([C@@H]2O[C@H](CO)C[C@H]2O)cc1/C(Br)=C\I [Compound 15c, (E)-5-(1-Bromo-2-iodovinyl)-3′-deoxyuridine]
- IC50 [1, 8]: > 200 µM
- IC90 [1, 8]: > 200 µM
- Selectivity Index (SI), ratio between CC50 and IC50 [1]: ≦1
- CC50 at 3 days [2]: > 200 µM
- CC50 [3]: 71.5 µM
- CC50 [4]: 79.3 µM
- CC50 [5]: > 100 µM
- EC50 (BVDV strain NADL): > 100 µM
- CC50 at 3 days [6]: > 100 µM

SMILES: NC(=O)c1ncn([C@@H]2O[C@H](CO)[C@@H](O)[C@H]2O)n1 [Ribavirin, 1-β-D-ribofuranosyl-1,2,4-triazole-3-carboxamide, reference compound]
- IC50 ([1]; Hepatitis C virus, 72 h): 170 µM
- IC90 [1, 8]: > 512 µM
- Selectivity Index (SI), ratio between CC50 and IC50 [1]: <1
- CC50 at 3 days [2]: 110 µM
- EC50 (BVDV strain NADL): 36 µM
- CC50 at 3 days [6]: > 100 µM

SMILES: O=c1[nH]c(=O)n([C@@H]2O[C@H](CO)[C@@H](O)[C@H]2O)cc1/C(Cl)=C\I [Compound 16b, (E)-5-(l-Chloro-2-iodovinyl)-uridine]
- IC50 [1, 9]: 74.9 µM
- IC90 [1, 9]: > 250 µM
- CC50 [7]: > 200 µM
- CC50 (PBM cells): > 100 µM
- CC50 (CEM cells): > 100 µM
- CC50 (VERO cells): > 100 µM

SMILES: O=c1[nH]c(=O)n([C@@H]2O[C@H](CO)[C@@H](O)[C@H]2O)cc1C#CBr [Compound 13b, 5-(2-bromoethynyl)-uridine]
- IC50 [1, 8]: 58 µM
- IC90 [1, 8]: > 200 µM
- Selectivity Index (SI), ratio between CC50 and IC50 [1]: 3.2
- CC50 at 3 days [2]: 188 µM
- CC50 [3]: > 100 µM
- CC50 [4]: > 100 µM
- CC50 [5]: > 100 µM
- EC50 (BVDV strain NADL): > 100 µM
- CC50 at 3 days [6]: > 100 µM

Source: US20090004137A1, “Uridine Derivatives as Antiviral Drugs Against a Flaviviridae, Especially Hcv” (priority 2004, published 2009)
